Source: patent US10941147B2, “Bicyclic heteroaryl derivatives” (Hoffmann-La Roche Inc., priority 2016, dated 2021)

Target: T1, γ-secretase (Homo sapiens, UniProt P49768)
T1 construct: Human neuroglioma H4 cells overexpressing human APP695; endogenous in cells; host or cells: human neuroglioma H4 cells stably overexpressing human APP695 Swedish
Assay: Cellular γ-secretase assay (inhibition of Aβ42 secretion, AlphaLisa)
Type: cell-based
Settings: Human neuroglioma H4 cells overexpressing human APP695 Swedish double mutation; 24 hr compound incubation; secreted Aβ42 in supernatant
Method: Description of γ-Secretase Assay
Cellular γ-Secretase Assay
Human neuroglioma H4 cells overexpressing human APP695 with the Swedish double mutation (K595N/M596L) were plated at 30,000 cells/well/100 al in 96-well plates in IMDM media containing 10% FCS, […] Hygromycin B and incubated at 37° C., 5% CO2.
3-4 hr post plating, compounds are a diluted in media and 50 μl is added as 1.5-fold concentrate to achieve the final concentration. Compound incubation is performed for 24 hr. Final doses typically range from 4 μM down to 0.0013 μM in half-log steps resulting in a eight point dose response curve.
Appropriate controls using vehicle only and reference compound were applied to this assay. The final concentration of Me2SO was 0.4%.
After incubation at 37° C., 5% CO2, the supernatant was subjected to quantification of secreted Aβ42 by the means of an AlphaLisa assay kit (Human Amyloid beta 1-42 Kit: Cat #AL203C, Perkin Elmer). 20 μl of the cell culture supernatant was transferred to an assay plate. Then 10 μl of a mixture of the AlphaLisa coupled capture antibody and the biotinylated detection antibody was added and incubated for 3 hours at room temperature while softly shaking the assay plate. After a further addition of 20 μl of the Donor beads the assay plate was incubated for 30 min at room temperature and constant shaking without exposure to direct light. The assay plate was then read on a Paradigm AlphaLisa Reader using the build-in program with excitation at 680 nm and emission at […].
The measured signals were then used to calculate IC50 values for inhibition of Aβ42 secretion by nonlinear regression fit analysis using XLfit 5.3 software (IDBS).

SMILES	EC50 [nM]
Cc1cc(N2C[C@H]3CC[C@@H](C2)[C@@H]3Nc2nc3n(n2)CCCCC3c2ccc(C(F)(F)F)cc2)ncn1 (mixture of isomers) [Example 3, N-[(1R,5S,8S)-3-(6-methylpyrimidin-4-yl)-3-azabicyclo[3.2.1]octan-8-yl]-9-[4-(trifluoromethyl)phenyl]-6,7,8,9-tetrahydro-5H-[1,2,4]triazolo[1,5-a]azepin-2-amine]	20.6
Cc1cc(N2C[C@H]3CC[C@@H](C2)[C@@H]3Nc2nc3n(n2)CCCCC3c2ccc(Cl)cc2)ncn1 (mixture of isomers) [Example 7, 9-(4-chlorophenyl)-N-[(1R,5S,8S)-3-(6-methylpyrimidin-4-yl)-3-azabicyclo[3.2.1]octan-8-yl]-6,7,8,9-tetrahydro-5H-[1,2,4]triazolo[1,5-a]azepin-2-amine]	23.4
Cc1cc(N2C[C@H]3CC[C@@H](C2)[C@@H]3Nc2nc3n(n2)CCCCC3c2cccc(C(F)(F)F)c2)ncn1 (mixture of isomers) [Example 11, N-[(1R,5S,8S)-3-(6-methylpyrimidin-4-yl)-3-azabicyclo[3.2.1]octan-8-yl]-9-[3-(trifluoromethyl)phenyl]-6,7,8,9-tetrahydro-5H-[1,2,4]triazolo[1,5-a]azepin-2-amine]	28
Cc1cc(N2C[C@H]3CC[C@@H](C2)[C@@H]3Nc2nc3n(n2)CCCCC3c2ccc(F)c(F)c2F)ncn1 (mixture of isomers) [Example 14, N-[(1R,5S,8S)-3-(6-methylpyrimidin-4-yl)-3-azabicyclo[3.2.1]octan-8-yl]-9-(2,3,4-trifluorophenyl)-6,7,8,9-tetrahydro-5H-[1,2,4]triazolo[1,5-a]azepin-2-amine]	12.6
Fc1ccc(C2CCCCn3nc(N[C@@H]4[C@@H]5CC[C@H]4CN(c4cc(Cl)ncn4)C5)nc32)c(F)c1F (mixture of isomers) [Example 17, N-[(1R,5S,8S)-3-(6-chloropyrimidin-4-yl)-3-azabicyclo[3.2.1]octan-8-yl]-9-(2,3,4-trifluorophenyl)-6,7,8,9-tetrahydro-5H-[1,2,4]triazolo[1,5-a]azepin-2-amine]	17.7
Fc1ccc(C2CCCCn3nc(N[C@@H]4[C@@H]5CC[C@H]4CN(c4ccnc(C(F)(F)F)c4)C5)nc32)c(F)c1F (stereo partly drawn) [Example 1, N-[(1R,5S,8S)-3-[2-(trifluoromethyl)-4-pyridyl]-3-azabicyclo[3.2.1]octan-8-yl]-9-(2,3,4-trifluorophenyl)-6,7,8,9-tetrahydro-5H-[1,2,4]triazolo[1,5-a]azepin-2-amine]	34.6
FC(F)(F)c1ccc(C2CCCCn3nc(N[C@@H]4[C@@H]5CC[C@H]4CN(c4ccnc(C(F)(F)F)c4)C5)nc32)cc1 (stereo partly drawn) [Example 2, 9-[4-(trifluoromethyl)phenyl]-N-[(1R,5S,8S)-3-[2-(trifluoromethyl)-4-pyridyl]-3-azabicyclo[3.2.1]octan-8-yl]-6,7,8,9-tetrahydro-5H-[1,2,4]triazolo[1,5-a]azepin-2-amine]	48.4
Cc1cc(N2C[C@H]3CC[C@@H](C2)[C@@H]3Nc2nc3n(n2)CCCC[C@H]3c2ccc(C(F)(F)F)cc2)ncn1 [Example 4, (9S)—N-[(1R,5S)-3-(6-methylpyrimidin-4-yl)-3-azabicyclo[3.2.1]octan-8-yl]-9-[4-(trifluoromethyl)phenyl]-6,7,8,9-tetrahydro-5H-[1,2,4]triazolo[1,5-a]azepin-2-amine]	37.4
Cc1cc(N2C[C@H]3CC[C@@H](C2)C3Nc2nc3n(n2)CCCC[C@@H]3c2ccc(C(F)(F)F)cc2)ncn1 (stereo partly drawn) [Example 5, (9R)—N-[(1R,5S)-3-(6-methylpyrimidin-4-yl)-3-azabicyclo[3.2.1]octan-8-yl]-9-[4-(trifluoromethyl)phenyl]-6,7,8,9-tetrahydro-5H-[1,2,4]triazolo[1,5-a]azepin-2-amine]	11.6
FC(F)(F)c1cc(N2C[C@H]3CC[C@@H](C2)[C@@H]3Nc2nc3n(n2)CCCCC3c2ccc(Cl)cc2)ccn1 (stereo partly drawn) [Example 6, 9-(4-chlorophenyl)-N-[(1R,5S,8S)-3-[2-(trifluoromethyl)-4-pyridyl]-3-azabicyclo[3.2.1]octan-8-yl]-6,7,8,9-tetrahydro-5H-[1,2,4]triazolo[1,5-a]azepin-2-amine]	50.6
Cc1cc(N2C[C@H]3CC[C@@H](C2)[C@@H]3Nc2nc3n(n2)CCCC[C@H]3c2ccc(Cl)cc2)ncn1 [Example 8, (9S)-9-(4-chlorophenyl)-N-[(1R,5S,8S)-3-(6-methylpyrimidin-4-yl)-3-azabicyclo[3.2.1]octan-8-yl]-6,7,8,9-tetrahydro-5H-[1,2,4]triazolo[1,5-a]azepin-2-amine]	31.9
Cc1cc(N2C[C@H]3CC[C@@H](C2)[C@@H]3Nc2nc3n(n2)CCCC[C@@H]3c2ccc(Cl)cc2)ncn1 [Example 9, (9R)-9-(4-chlorophenyl)-N-[(1R,5S,8S)-3-(6-methylpyrimidin-4-yl)-3-azabicyclo[3.2.1]octan-8-yl]-6,7,8,9-tetrahydro-5H-[1,2,4]triazolo[1,5-a]azepin-2-amine]	48.9
FC(F)(F)c1cccc(C2CCCCn3nc(N[C@@H]4[C@@H]5CC[C@H]4CN(c4ccnc(C(F)(F)F)c4)C5)nc32)c1 (stereo partly drawn) [Example 10, 9-[3-(trifluoromethyl)phenyl]-N-[(1R,5S,8S)-3-[2-(trifluoromethyl)-4-pyridyl]-3-azabicyclo[3.2.1]octan-8-yl]-6,7,8,9-tetrahydro-5H-[1,2,4]triazolo[1,5-a]azepin-2-amine]	33.7
Cc1cc(N2C[C@H]3CC[C@@H](C2)[C@@H]3Nc2nc3n(n2)CCCC[C@H]3c2cccc(C(F)(F)F)c2)ncn1 [Example 12, (9S)—N-[(1R,5S,8S)-3-(6-methylpyrimidin-4-yl)-3-azabicyclo[3.2.1]octan-8-yl]-9-[3-(trifluoromethyl)phenyl]-6,7,8,9-tetrahydro-5H-[1,2,4]triazolo[1,5-a]azepin-2-amine]	14.9
Cc1cc(N2C[C@H]3CC[C@@H](C2)[C@@H]3Nc2nc3n(n2)CCCC[C@@H]3c2cccc(C(F)(F)F)c2)ncn1 [Example 13, (9R)—N-[(1R,5S,8S)-3-(6-methylpyrimidin-4-yl)-3-azabicyclo[3.2.1]octan-8-yl]-9-[3-(trifluoromethyl)phenyl]-6,7,8,9-tetrahydro-5H-[1,2,4]triazolo[1,5-a]azepin-2-amine]	15
Cc1cc(N2C[C@H]3CC[C@@H](C2)[C@@H]3Nc2nc3n(n2)CCCC[C@H]3c2ccc(F)c(F)c2F)ncn1 [Example 15, (9S)—N-[(1R,5S,8S)-3-(6-methylpyrimidin-4-yl)-3-azabicyclo[3.2.1]octan-8-yl]-9-(2,3,4-trifluorophenyl)-6,7,8,9-tetrahydro-5H-[1,2,4]triazolo[1,5-a]azepin-2-amine]	8.4
Cc1cc(N2C[C@H]3CC[C@@H](C2)[C@@H]3Nc2nc3n(n2)CCCC[C@@H]3c2ccc(F)c(F)c2F)ncn1 [Example 16, (9R)—N-[(1R,5S,8S)-3-(6-methylpyrimidin-4-yl)-3-azabicyclo[3.2.1]octan-8-yl]-9-(2,3,4-trifluorophenyl)-6,7,8,9-tetrahydro-5H-[1,2,4]triazolo[1,5-a]azepin-2-amine]	7.1
Fc1ccc([C@@H]2CCCCn3nc(N[C@@H]4[C@@H]5CC[C@H]4CN(c4cc(Cl)ncn4)C5)nc32)c(F)c1F [Example 18, (9S)—N-[(1R,5S,8S)-3-(6-chloropyrimidin-4-yl)-3-azabicyclo[3.2.1]octan-8-yl]-9-(2,3,4-trifluorophenyl)-6,7,8,9-tetrahydro-5H-[1,2,4]triazolo[1,5-a]azepin-2-amine]	12.4
Fc1ccc([C@H]2CCCCn3nc(N[C@@H]4[C@@H]5CC[C@H]4CN(c4cc(Cl)ncn4)C5)nc32)c(F)c1F [Example 19, (9R)—N-[(1R,5S,8S)-3-(6-chloropyrimidin-4-yl)-3-azabicyclo[3.2.1]octan-8-yl]-9-(2,3,4-trifluorophenyl)-6,7,8,9-tetrahydro-5H-[1,2,4]triazolo[1,5-a]azepin-2-amine]	12.5
COc1cc(N2C[C@H]3CC[C@@H](C2)[C@@H]3Nc2nc3n(n2)CCCCC3c2ccc(F)c(F)c2F)ccn1 (stereo partly drawn) [Example 20, N-[(1R,5S,8S)-3-(2-methoxy-4-pyridyl)-3-azabicyclo[3.2.1]octan-8-yl]-9-(2,3,4-trifluorophenyl)-6,7,8,9-tetrahydro-5H-[1,2,4]triazolo[1,5-a]azepin-2-amine]	8.5
COc1cc(N2C[C@H]3CC[C@@H](C2)[C@@H]3Nc2nc3n(n2)CCCCC3c2ccc(F)c(F)c2F)ncn1 (stereo partly drawn) [Example 21, N-[(1R,5S,8S)-3-(6-methoxypyrimidin-4-yl)-3-azabicyclo[3.2.1]octan-8-yl]-9-(2,3,4-trifluorophenyl)-6,7,8,9-tetrahydro-5H-[1,2,4]triazolo[1,5-a]azepin-2-amine]	53.4
Cc1ncnc(N2C[C@H]3CC[C@@H](C2)[C@@H]3Nc2nc3n(n2)CCCCC3c2ccc(F)c(F)c2F)c1F (stereo partly drawn) [Example 22, N-[(1R,5S,8S)-3-(5-fluoro-6-methyl-pyrimidin-4-yl)-3-azabicyclo[3.2.1]octan-8-yl]-9-(2,3,4-trifluorophenyl)-6,7,8,9-tetrahydro-5H-[1,2,4]triazolo[1,5-a]azepin-2-amine]	30.3
